Assay in all cases: selectivity profiling in a panel of 340 wild-type kinases (Reaction Biology Europe)
Common to all, as to assay type: binding

Assay [1] concerns the target T1, 340 wild-type kinases (Homo sapiens, UniProt Q13976).
T1 construct: purchased Reaction Biology Europe
T1 sequence (Q13976 1-671): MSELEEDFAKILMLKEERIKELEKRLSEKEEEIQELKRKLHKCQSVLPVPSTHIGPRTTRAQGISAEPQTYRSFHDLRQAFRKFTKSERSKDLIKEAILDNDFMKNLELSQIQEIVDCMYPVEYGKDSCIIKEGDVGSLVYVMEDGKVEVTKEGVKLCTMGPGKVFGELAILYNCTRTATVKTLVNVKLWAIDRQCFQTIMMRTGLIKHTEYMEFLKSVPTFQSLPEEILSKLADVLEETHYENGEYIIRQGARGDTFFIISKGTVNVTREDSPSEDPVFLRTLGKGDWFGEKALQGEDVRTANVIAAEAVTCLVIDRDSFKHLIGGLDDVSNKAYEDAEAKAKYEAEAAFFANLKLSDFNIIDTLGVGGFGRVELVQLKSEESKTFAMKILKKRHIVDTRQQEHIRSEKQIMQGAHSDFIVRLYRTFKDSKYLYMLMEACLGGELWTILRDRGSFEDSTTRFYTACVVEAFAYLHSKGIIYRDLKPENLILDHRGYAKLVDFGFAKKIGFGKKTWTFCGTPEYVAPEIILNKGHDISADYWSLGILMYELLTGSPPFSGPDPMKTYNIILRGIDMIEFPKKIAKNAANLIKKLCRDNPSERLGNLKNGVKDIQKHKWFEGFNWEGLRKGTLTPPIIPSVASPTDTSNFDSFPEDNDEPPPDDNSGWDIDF

Assay [2] addresses T2, 340 wild-type kinases (Homo sapiens, UniProt P52564, S207D/T211D).
T2 construct: purchased Reaction Biology Europe
T2 sequence (P52564 1-334 S207D/T211D): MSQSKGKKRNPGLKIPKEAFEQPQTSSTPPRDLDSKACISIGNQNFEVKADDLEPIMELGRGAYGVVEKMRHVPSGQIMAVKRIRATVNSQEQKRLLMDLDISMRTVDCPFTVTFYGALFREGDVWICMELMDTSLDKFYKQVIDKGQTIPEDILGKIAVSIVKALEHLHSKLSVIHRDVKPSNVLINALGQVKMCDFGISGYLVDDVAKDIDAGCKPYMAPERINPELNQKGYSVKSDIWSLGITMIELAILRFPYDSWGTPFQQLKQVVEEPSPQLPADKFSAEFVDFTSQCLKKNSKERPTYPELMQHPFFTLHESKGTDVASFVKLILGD

Assay [3] deals with T3, 340 wild-type kinases (Homo sapiens, UniProt P49840).
T3 construct: purchased Reaction Biology Europe

Assay [4] has as its target T4, 340 wild-type kinases (Homo sapiens, UniProt P07947).
T4 construct: purchased Reaction Biology Europe

For assay [5], the target named is T5, 340 wild-type kinases (Homo sapiens, UniProt O15111).
T5 construct: purchased Reaction Biology Europe
T5 sequence (O15111 1-745): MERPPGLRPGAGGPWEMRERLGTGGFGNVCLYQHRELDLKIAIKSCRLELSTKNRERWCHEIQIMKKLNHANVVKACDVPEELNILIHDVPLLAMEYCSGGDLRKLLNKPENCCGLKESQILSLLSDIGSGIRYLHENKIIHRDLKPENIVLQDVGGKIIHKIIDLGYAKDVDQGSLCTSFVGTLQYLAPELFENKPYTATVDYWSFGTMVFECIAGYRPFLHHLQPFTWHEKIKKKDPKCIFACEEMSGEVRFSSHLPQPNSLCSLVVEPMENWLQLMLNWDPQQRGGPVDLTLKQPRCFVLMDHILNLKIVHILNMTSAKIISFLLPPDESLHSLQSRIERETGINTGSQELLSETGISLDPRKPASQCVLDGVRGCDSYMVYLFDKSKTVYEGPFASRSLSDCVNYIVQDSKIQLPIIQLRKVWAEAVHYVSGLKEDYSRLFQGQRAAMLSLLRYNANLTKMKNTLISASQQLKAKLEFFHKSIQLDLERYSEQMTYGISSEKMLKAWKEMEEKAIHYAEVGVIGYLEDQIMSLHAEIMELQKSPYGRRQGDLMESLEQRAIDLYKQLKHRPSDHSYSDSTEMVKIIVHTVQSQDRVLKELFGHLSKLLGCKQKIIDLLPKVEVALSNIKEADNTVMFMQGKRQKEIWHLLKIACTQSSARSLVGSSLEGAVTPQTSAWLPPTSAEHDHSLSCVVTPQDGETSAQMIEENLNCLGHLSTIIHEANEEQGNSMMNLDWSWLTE

Where two headings read alike, the source gives them in different places.

T4 sequence (P07947 whole entry): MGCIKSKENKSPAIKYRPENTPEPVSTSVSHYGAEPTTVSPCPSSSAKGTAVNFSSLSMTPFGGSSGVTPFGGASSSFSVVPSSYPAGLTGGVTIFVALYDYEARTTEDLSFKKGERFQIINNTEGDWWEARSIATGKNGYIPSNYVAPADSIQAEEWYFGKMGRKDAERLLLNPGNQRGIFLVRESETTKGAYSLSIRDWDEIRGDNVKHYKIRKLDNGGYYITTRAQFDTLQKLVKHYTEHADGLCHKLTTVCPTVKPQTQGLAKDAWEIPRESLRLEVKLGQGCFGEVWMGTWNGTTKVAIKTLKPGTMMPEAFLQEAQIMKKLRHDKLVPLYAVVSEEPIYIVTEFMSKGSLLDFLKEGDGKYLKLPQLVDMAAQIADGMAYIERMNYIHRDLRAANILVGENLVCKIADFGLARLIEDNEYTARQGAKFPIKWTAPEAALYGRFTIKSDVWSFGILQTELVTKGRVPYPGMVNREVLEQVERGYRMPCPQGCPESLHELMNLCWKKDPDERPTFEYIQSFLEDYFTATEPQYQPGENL
T3 sequence (P49840 whole entry): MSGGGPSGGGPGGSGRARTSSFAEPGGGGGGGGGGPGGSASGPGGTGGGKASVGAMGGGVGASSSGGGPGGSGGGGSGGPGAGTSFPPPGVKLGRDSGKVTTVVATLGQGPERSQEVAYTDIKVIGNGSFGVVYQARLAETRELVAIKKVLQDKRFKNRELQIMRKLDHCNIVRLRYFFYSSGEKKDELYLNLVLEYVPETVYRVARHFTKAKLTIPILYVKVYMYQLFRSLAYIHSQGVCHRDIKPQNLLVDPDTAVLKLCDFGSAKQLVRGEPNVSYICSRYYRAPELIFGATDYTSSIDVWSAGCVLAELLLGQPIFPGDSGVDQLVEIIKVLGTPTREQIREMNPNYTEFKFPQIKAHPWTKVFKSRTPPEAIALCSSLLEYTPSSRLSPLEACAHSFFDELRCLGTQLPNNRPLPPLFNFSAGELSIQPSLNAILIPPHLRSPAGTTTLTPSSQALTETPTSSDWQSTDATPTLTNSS

Turning to `CNC(=O)c1ccc2c(c1)C(=O)c1ccc(Nc3ccc(F)c(NC(=O)C4CC4)c3)cc1CC2` [Compound 2015], the remaining activity at 0.2 µM in assay [1] (0.2 µM 2015, read-out: PRKG1 residual activity) came to 106%; in assay [1] (PRKG1, 0.2 µM, read-out: residual activity) it was 106%; in assay [2] (0.2 µM 2015, read-out: MKK6 SDTD residual activity), 83.9%; in assay [2] (MKK6 SDTD, 0.2 µM, read-out: residual activity), 83.9%; in assay [3] (0.2 µM 2015, read-out: GSK3alpha residual activity), 110%; in assay [3] (GSK3alpha, 0.2 µM, read-out: residual activity), 110%. Also, the remaining activity at 0.2 µM is 102% in assay [4] (0.2 µM 2015, read-out: YES residual activity); 102% in assay [4] (YES, 0.2 µM, read-out: residual activity); 97.6% in assay [5] (0.2 µM 2015, read-out: IKKalpha residual activity); 97.6% in assay [5] (IKKalpha, 0.2 µM, read-out: residual activity). For the same compound, the remaining activity at 1 µM in assay [1] (1 µM 2015, read-out: PRKG1 residual activity) amounted to 104%; in assay [1] (PRKG1, 1 µM, read-out: residual activity) it was 104%; in assay [2] (1 µM 2015, read-out: MKK6 SDTD residual activity) it was 111%; in assay [2] (MKK6 SDTD, 1 µM, read-out: residual activity), 111%; in assay [3] (1 µM 2015, read-out: GSK3alpha residual activity), 82.6%; in assay [3] (GSK3alpha, 1 µM, read-out: residual activity) it was 82.6%. Further, the remaining activity at 1 µM in assay [4] (1 µM 2015, read-out: YES residual activity) worked out at 105%; in assay [4] (YES, 1 µM, read-out: residual activity), 105%; in assay [5] (1 µM 2015, read-out: IKKalpha residual activity) it was 92%; in assay [5] (IKKalpha, 1 µM, read-out: residual activity) it was 92%.
